Assay results from patent US10434038B2, “Solid phosphonate salts as an add-on in endodontics” (smartodont GmbH, priority 2016, dated 2019).
Entries after “also recorded” stand apart in the source; their conditions may differ.

Tests used:
[1] = available chlorine over one hour in mixtures of a chelator and a sodium hypochlorite solution, titration with sodium thiosulfate (FIGS. 2 and 3); assay type: physicochemical; settings: for loss of available hypochlorite anions: admixture into sodium hypochlorite solution
Excerpt: To measure the amount of hypochlorite, it has to be transferred by acidification to chlorine, which oxidizes potassium iodide to iodine. The latter is then titrated with a sodium thiosulfate solution.
In particular, the chlorine reduction from a 9 weight percentage and 18 weight percentage of Na4HEDP with reference to the total weight of the sodium hypochlorite solution as well as the chlorine reduction from a 3 weight percentage and 18 weight percentage of Na4EDTA with reference to the total weight of the sodium hypochlorite solution, respectively, was monitored over one hour, which is the normal duration of an endodontic treatment. The Na4HEDP and the Na4EDTA were each dissolved in a sodium hypochlorite solution comprising 1 weight percentage of sodium hypochlorite with reference to the total weight of the sodium hypochlorite solution.
The amount of chlorine over time was compared with a control solution of 1 weight percentage of pure sodium hypochlorite. In order to determine the amount of the available chlorine, aliquots of each solution (approximately 0.5 grams) were removed after 1 minute, 10 minutes, 20 minutes, 30 minutes and 60 minutes and assessed for their amount of available chlorine using a titration apparatus. Thereby, a 0.1 molar sodium thiosulfate solution was used as titrator.
In FIG. 3, the same measurements are performed using the same amounts of Na4HEDP and Na4EDTA as in FIG. 2, whereby these chelators are each admixed into a NaOCl solution comprising 5 weight percentage of NaOCl.

[2] = evolution of the pH-value of calcium hydroxide with Na4HEDP in distilled water (FIG. 4); assay type: physicochemical; settings: 1 gram calcium hydroxide and 0.1 gram Na4HEDP in 10 milliliter distilled water, 10 minutes
Protocol: FIG. 4 depicts the evolution of the pH-value over time determined for the admixture of Na4HEDP and calcium hydroxide in solid form and only calcium hydroxide in solid form, respectively, into distilled water. The solutions are prepared by mixing 1 gram of calcium hydroxide in solid form and 0.1 gram of Na4HEDP in a glass vial. 10 milliliter of distilled water was added, and the pH measurement was started immediately and continued for 10 minutes. As a control, the pH value of 1 gram pure calcium hydroxide dissolved in 10 milliliter of distilled water was recorded, too. […] Consequently, the addition of Na4HEDP to calcium hydroxide can trigger an earlier onset of the desired disinfecting effect. In addition, the binding capacity of Na4HEDP to Ca^2+ makes it easier to remove the calcium hydroxide slurry from the root canal system before the canal is filled with an alloplastic material.

[3] = 18 weight percentage chelator in 1 weight percentage NaOCl solution, after one hour
[4] = 18 weight percentage chelator in 1 weight percentage NaOCl solution, at the start

Structure (SMILES): O=C([O-])CN(CCN(CC(=O)[O-])CC(=O)[O-])CC(=O)[O-].[Na+].[Na+].[Na+].[Na+] [Na4EDTA, reference compound]
- relative amount of chlorine compared to pure NaOCl control ([1]; 3 weight percentage chelator in 1 weight percentage NaOCl solution, after one hour): below 25 weight percentage
- relative amount of chlorine compared to pure NaOCl control ([1]; 3 weight percentage chelator in 1 weight percentage NaOCl solution, at the start): about 95 weight percentage
- relative amount of chlorine compared to pure NaOCl control [1, 3]: below 25 weight percentage
- relative amount of chlorine compared to pure NaOCl control [1, 4]: about 75 weight percentage
- loss of available hypochlorite anions ([1]; over the course of one hour): pronounced loss
- amount of chlorine ([1]; chelator in 5 weight percentage NaOCl solution, after one hour): zero

Structure (SMILES): CC(O)(P(=O)([O-])[O-])P(=O)([O-])[O-].[Na+].[Na+].[Na+].[Na+] [Na4HEDP, tetrasodium (1-hydroxyethane)-1,1′-di-phosphonate]
- relative amount of chlorine compared to pure NaOCl control ([1]; 9 weight percentage chelator in 1 weight percentage NaOCl solution, after one hour): about 90 weight percentage
- relative amount of chlorine compared to pure NaOCl control ([1]; 9 weight percentage chelator in 1 weight percentage NaOCl solution, at the start): ~100 percentage
- relative amount of chlorine compared to pure NaOCl control [1, 3]: about 75 weight percentage
- relative amount of chlorine compared to pure NaOCl control [1, 4]: ~100 percentage
- loss of available hypochlorite anions ([1]; over the course of one hour): no significant loss; also recorded: does not cause any significant loss
- drop of the amount of chlorine ([1]; chelator in 5 weight percentage NaOCl solution, over the course of one hour): less than 25 percentage
- pH value of the slurry compared to calcium hydroxide alone [2]: higher pH value which increases faster
